Test results published in patent publication US6420630B1, “Methods for tissue culturing and transforming elite inbreds of Zea mays L” (Stine Biotechnology, priority 1998, dated 2002).

Columns and labels:
Agrobacterium = assay: Control of Agrobacterium growth on culture media after co-cultivation; format: cell-based, Agrobacterium tumefaciens; conditions: for control of Agrobacterium growth: first 19 day culture period after co-cultivation
Excerpt: Agrobacterium strain LBA 4404 harboring “super binary” vectors as described in U.S. patent Hei and Komari (1997) was used in corn transformation experiments. […] The gus expression cassette contains an intron in the N-terminal region of the gus gene which prevents expression in bacteria, but upon expression in plant cells the intron is spliced out and Gus activity is achieved (Ohta et al., 1990; Ishida et al., 1996). Agrobacterium containing “super binary” vectors were stored in glycerol stocks using acidified glycerol. Glycerol was acidified by adding 15 drops of 1 M HCl to one liter of glycerol (Sigma G-9012). Final glycerol concentration of stocks was 15 to 20% and stocks were frozen at minus 86° C. When glycerol stocks were used as the source for transformation experiments, Agrobacterium was made ready for transformation experiments by removing a few flakes of frozen culture with a sterile loop, streaking it out on YP medium (5 g/l yeast extract, 10 g/l peptone, 5 g/l NaCl, and 15 g/l agar) containing 50 mg/l spectinomycin, and incubating it for one or two days at 28° C. When glycerol stocks were not used as the source, Agrobacterium maintained on YP plus spectinomycin at 4° C. was used to initiate new cultures of Agrobacterium that were grown as described above.
Therefore, a lower level of cefotaxime was tested in the presence of silver nitrate to see if embryo response and subsequent clone recovery could be improved. […] The clones were then transferred to DN62B (Table 4) for growth and further selection prior to regeneration.

[1] = tested on: immature embryos of Stine inbred 963; assay: Type II callus initiation from cultured immature embryos (embryos responding); format: cell-based, Zea mays L.; conditions: sugar at 10 g/l in combination with 20 g/l sucrose, N6A medium
Description: Plants of the elite corn inbred Stine 963 were grown under controlled conditions, either in a grow room or in a greenhouse. Plants were exposed throughout growth to a 16 h photoperiod with a daytime temperature of around 30° C. and a nighttime temperature of around 25° C. Plants were selfed and after approximately 10 days ears were harvested. At this time the immature embryos were on average between 1.0 and 2.0 mm in length. Usually the ears were then placed at 4° for two days prior to immature embryo excision. The response on standard […] media (Table 1) for inducing Type II callus was variable and appeared to be dependent on the physiological state of the donor plant. The frequency of Type II callus ranged from 0% up to 95%, with an average of around 40%. Immature embryos were excised with a view to using them as targets for Agrobacterium-mediated DNA delivery. For this work a reproducible and high frequency response is required and improvement in these aspects was therefore desirable. The protocol used for introduction of DNA mediated by Agrobacterium was based on that described by Hei and Komari (1997). The co-cultivation medium in this protocol (LSAS-Table 1) contains glucose, intended presumably as a carbon source for Agrobacterium. After close observation of immature embryos on LSAS medium it was thought worthwhile to check for the effects of glucose on culture initiation and subsequent development. 10 g/l of glucose was therefore added to […] medium. This medium was subsequently referred to as […] (Table 1). […] Various other sugars were tested in this regard (see Table 3) and some are capable of supporting an increased rate of Type II callus initiation (especially maltose, lactose, sorbitol and mannitol). None of those tested, however, were as efficient as glucose in stimulating Type II callus formation on […] medium. All sugars were tested at 10 g/l in combination with 20 g/l sucrose.

O=[N+]([O-])[O-].[Ag+] [silver nitrate]
Agrobacterium growth (Agrobacterium; media containing silver nitrate): inhibited

OC[C@H]1O[C@H](OCC2O[C@@H](O)[C@H](O)[C@@H](O)[C@@H]2O)[C@H](O)[C@@H](O)[C@H]1O (stereo partly shown) [Mellibiose]
Embryo Response [1]: <50%

CO/N=C(\C(=O)N[C@@H]1C(=O)N2C(C(=O)O)=C(COC(C)=O)CS[C@H]12)c1csc(N)n1 [cefotaxime]
control of Agrobacterium growth (Agrobacterium; 10 mg/l cefotaxime in presence of silver nitrate): not | control of Agrobacterium growth (Agrobacterium; 50 mg/l cefotaxime in presence of silver nitrate): Adequate control of Agrobacterium growth

O=C(CO)[C@@H](O)[C@H](O)[C@H](O)CO [Fructose]
Embryo Response [1]: <50%

O=C[C@H](O)[C@@H](O)[C@H](O)CO [Xylose]
Embryo Response [1]: <50%

O=C[C@H](O)[C@@H](O)[C@H](O[C@@H]1O[C@H](CO)[C@@H](O)[C@H](O)[C@H]1O)[C@H](O)CO [Cellobiose]
Embryo Response [1]: <50%

OC[C@H]1O[C@H](O[C@H]2O[C@H](CO)[C@@H](O)[C@H](O)[C@H]2O)[C@H](O)[C@@H](O)[C@@H]1O [Trehalose]
Embryo Response [1]: <50%

O=C[C@H](O)[C@@H](O)[C@@H](O)[C@H](O)CO [Galactose]
Embryo Response [1]: <30%

OC[C@H]1O[C@H](OC[C@H]2O[C@H](O[C@]3(CO)O[C@H](CO)[C@@H](O)[C@@H]3O)[C@H](O)[C@@H](O)[C@@H]2O)[C@H](O)[C@@H](O)[C@H]1O [Raffinose]
Embryo Response [1]: <50%
